Laboratory results from patent US20100286254A1 (ANTISOMA RESEARCH LIMITED, priority 2007, published 2010).
Counter-ions that a name gives are not always drawn. Blank lines part the entries; values can stand above or below the molecule they belong to.

Tests used:
[1] = Dynamic Vapour Sorption (DVS) experiment; format: physicochemical; details: 25° C.
Method: DVS: Dynamic vapour sorption measurements were carried out with an instrument of Surface Measurement Systems (http:www.smsuk.co.uk). The weight change of the investigated sample is monitored while the relative humidity is changed over a range from 0% r.h. to 95% r.h. at a change rate of 5% per hour.
About 10 mg of a mixture of forms B and C is placed into a suitable sample pan and investigated with a dynamic vapour sorption apparatus of Surface Measurement Systems, DVS-1 (series 1000) using software version DVS win SP2, V3.01 at 25° C. The initial relative humidity is 50% and the initial mass is 100%, thereafter the humidity is increased to 95% and kept at this level for 2 hours, then the humidity is decreased to 0%, and kept at 0% during 10 hours, then raised again to 95%. Change rates are always 5% per hour.

[2] = Hygroscopicity; format: physicochemical; details: sodium salt
[3] = system: human tumours; details: monotherapy, cited from earlier work
[4] = system: syngeneic murine tumours or human tumour xenografts; details: mouse, in vivo; cited from earlier work
[5] = Storage under controlled relative humidity (solid form stability); format: physicochemical
Excerpt: A high relative humidity is here defined as a relative humidity of about 70 to 90%. […] In particular, the water content can be well controlled and remains constant, over time.

[6] = 52% relative humidity, ambient temperature, about two weeks

- water adsorbed ([1]; at 95% r.h.): about 1%
- water release ([1]; scanning r.h. to 0%): all the water is released
SMILES: Cc1ccc2c(=O)c3cccc(CC(=O)[O-])c3oc2c1C.[Na+] [mixture of forms B and C, DMXAA sodium salt]

- hygroscopicity [2]: hygroscopic
SMILES: Cc1ccc2c(=O)c3cccc(CC(=O)O)c3oc2c1C [form E, DMXAA sodium salt]

SMILES: Cc1ccc2c(=O)c3cccc(CC(=O)O)c3oc2c1C [DMXAA]
- tumour responses ([3]; phase I trials): few tumour responses were achieved
- tumour blood flow ([3]; well-tolerated doses, dynamic MRI): significant reduction in tumour blood flow
- antivascular activity, tumour blood flow [4]: prolonged inhibition of tumour blood flow leading to extensive regions of haemorrhagic necrosis

- hygroscopicity [2]: hygroscopic
SMILES: Cc1ccc2c(=O)c3cccc(CC(=O)O)c3oc2c1C [form L, DMXAA sodium salt]

- water content after storage [5, 6]: about 3%
- form conversion on storage ([5]; 75% relative humidity at 40° C.): transforms into form B within a few days
- form conversion on storage ([5]; open container, 75% relative humidity, about 34 hours): transformed into form B
- hygroscopicity [2]: hygroscopic
SMILES: Cc1ccc2c(=O)c3cccc(CC(=O)O)c3oc2c1C [form F, DMXAA sodium salt]
- change of the crystal form on storage [5, 6]: did not lead to a change of the crystal form

- hygroscopicity [2]: very hygroscopic
SMILES: Cc1ccc2c(=O)c3cccc(CC(=O)O)c3oc2c1C [amorphous DMXAA sodium salt, DMXAA sodium salt, reference compound]
